Test results: US8361998B2, “Compounds and their use as IKACh blockers” (AstraZeneca AB, priority 2010, dated 2013)

target: T1, human cardiac ion channel proteins hKir3.1/Kir3.4 (Homo sapiens, UniProt P48544+P48549); assay: Atomic Absorption Screening (AAS) Rb efflux assay of hKir3.1/Kir3.4 block, carbachol/high K+ stimulated, 10-pt or 7-pt CR; assay type: cell-based; details: 10-pt CR (0.003 to 67 μmol/L), AAS Rb efflux, CHO-K1 cells expressing hKir3.1/Kir3.4; mean of >4 replicates; read-out: IKACh IC50 10-pt CR, AAS
T1 construct: expressed in transfected cells
T1 sequence (P48549 1-501): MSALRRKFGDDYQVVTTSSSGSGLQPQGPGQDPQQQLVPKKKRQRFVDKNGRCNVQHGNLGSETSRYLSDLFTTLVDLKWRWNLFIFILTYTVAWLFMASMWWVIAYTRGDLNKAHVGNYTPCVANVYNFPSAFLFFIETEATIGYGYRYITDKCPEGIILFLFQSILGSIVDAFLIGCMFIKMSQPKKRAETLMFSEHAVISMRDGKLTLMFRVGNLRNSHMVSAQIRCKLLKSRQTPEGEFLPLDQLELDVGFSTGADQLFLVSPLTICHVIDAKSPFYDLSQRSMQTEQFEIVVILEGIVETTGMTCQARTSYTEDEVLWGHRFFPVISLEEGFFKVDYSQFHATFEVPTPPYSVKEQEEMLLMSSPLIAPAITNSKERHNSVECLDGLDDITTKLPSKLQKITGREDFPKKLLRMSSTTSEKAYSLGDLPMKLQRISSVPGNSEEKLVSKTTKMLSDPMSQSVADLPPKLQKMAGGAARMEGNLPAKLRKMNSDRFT
T1 sequence (P48544 1-419): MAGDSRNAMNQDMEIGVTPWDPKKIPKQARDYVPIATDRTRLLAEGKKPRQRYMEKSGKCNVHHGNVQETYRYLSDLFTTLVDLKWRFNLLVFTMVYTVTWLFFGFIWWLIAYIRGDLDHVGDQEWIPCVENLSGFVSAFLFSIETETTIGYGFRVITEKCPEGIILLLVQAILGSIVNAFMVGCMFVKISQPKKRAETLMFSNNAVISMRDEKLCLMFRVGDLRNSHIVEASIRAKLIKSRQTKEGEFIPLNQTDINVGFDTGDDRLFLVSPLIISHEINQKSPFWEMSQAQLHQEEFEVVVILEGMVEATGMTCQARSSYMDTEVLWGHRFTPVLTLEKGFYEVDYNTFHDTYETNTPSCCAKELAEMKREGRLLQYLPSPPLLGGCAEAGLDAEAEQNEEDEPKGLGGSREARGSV
Method in brief: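 Mean IC50s derive from >4 replicates over 0.003–67 μmol/L (10-point) or >3 replicates over 0.037–27 μmol/L (7-point), both threefold steps. Rb-loaded (3 h, 37° C) CHO-K1 cells stably expressing hKir3.1/Kir3.4 saw compound for 5 min at RT before 10-min channel opening by carbachol 10 μM/KCl 20 mM final. Released Rb was quantified by atomic absorption.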

Row | Compound | IC50 [µM]
1 | C[C@@H](CN1CC(O)C1)N(C)C(=O)c1ccc(Br)cc1 [Example 41, (S)-4-Bromo-N-(1-(3-hydroxyazetidin-1-yl)propan-2-yl)-N-methylbenzamide] | 7.3
2 | CC[C@@H](CN1CC(O)C1)N(C)C(=O)c1ccc(Br)cc1 [Example 42, (S)-4-Bromo-N-(1-(3-hydroxyazetidin-1-yl)butan-2-yl)-N-methylbenzamide] | 4
3 | CCC[C@@H](CN1CCC(O)CC1)N(C)C(=O)c1ccc(Cl)cc1 [Example 44, (S)-4-Chloro-N-(1-(4-hydroxypiperidin-1-yl)pentan-2-yl)-N-methylbenzamide] | 0.81
4 | CCC[C@@H](CN1CCC(OC)CC1)N(C)C(=O)c1ccc(Cl)cc1 [Example 45, (S)-4-Chloro-N-(1-(4-methoxypiperidin-1-yl)pentan-2-yl)-N-methylbenzamide] | 0.68
5 | CCC[C@@H](CN1CC[C@H](O)C1)N(C)C(=O)c1ccc(C#N)cc1 [Example 46.1, 4-Cyano-N-((S)-1-((S)-3-hydroxypyrrolidin-1-yl)pentan-2-yl)-N-methylbenzamide] | 8
6 | CCC[C@@H](CN1CC[C@H](O)C1)N(C)C(=O)c1ccc(Cl)cc1 [Example 46.2, 4-Chloro-N—((S)-1-((S)-3-hydroxypyrrolidin-1-yl)pentan-2-yl)-N-methylbenzamide] | 5.5

same assay, conditions: printed as IC50 >67 μM in the 10-pt CR assay or IC50 >27 μM in the 7-pt CR assay; assay format per compound not stated; read-out: IC50

Row | Compound | IC50 [µM]
7 | Cc1cc(C(=O)N(C)[C@H](CN2C[C@@H](O)[C@H](O)C2)C(C)C)ccc1F [N-((S)-1-((3R,4R)-3,4-Dihydroxypyrrolidin-1-yl)-3-methylbutan-2-yl)-4-fluoro-N,3-dimethylbenzamide] | > 27
8 | CC(C)[C@@H](CCN1CCCC1)N(C)C(=O)c1ccccc1 [N-Methyl-N-[(1R)-2-methyl-1-(2-pyrrolidin-1-ylethyl)propyl]benzamide] | > 27
9 | CC(C)[C@H](CN1CCCC1)N(C)C(=O)c1ccccc1OC(F)(F)F [N-Methyl-N-[(1R)-2-methyl-1-(pyrrolidin-1-ylmethyl)propyl]-2-(trifluoromethoxy)benzamide] | > 27
10 | CC(C)[C@@H](CN1CCCCC1)N(C)C(=O)c1ccc(OC(F)(F)F)cc1 [N-Methyl-N-[(1S)-2-methyl-1-(piperidin-1-ylmethyl)propyl]-4-(trifluoromethoxy)benzamide] | > 27
11 | CC(C)[C@@H](CN1CCCC1)N(C)C(=O)c1ccccc1 [N-Methyl-N-[(1S)-2-methyl-1-(pyrrolidin-1-ylmethyl)propyl]benzamide] | > 27
12 | COc1cccc(C(=O)N(C)[C@H](CN2CCCC(F)(F)C2)C(C)C)c1 [N-[(1S)-1-[(3,3-Difluoro-1-piperidyl)methyl]-2-methyl-propyl]-3-methoxy-N-methyl-benzamide] | > 27
13 | Cc1cccc(C(=O)N(C)[C@H](CN2CC[C@H](O)C2)C(C)C)c1 [N-[(1S)-1-{[(3S)-3-Hydroxypyrrolidin-1-yl]methyl}-2-methylpropyl]-N,3-dimethylbenzamide] | > 27
14 | CN(C(=O)c1ccc(C#N)cc1)[C@H](CN1CCC1)C1CC1 [N-[(1S)-2-(Azetidin-1-yl)-1-cyclopropyl-ethyl]-4-cyano-N-methyl-benzamide] | > 27
